In PMC7604311, “Caprine Bactenecins as Promising Tools for Developing New Antimicrobial and Antitumor Drugs” (Frontiers in Cellular and Infection Microbiology, 2020):
Read-outs that look alike come from different tables or passages of the source. Ends that are not written are not given here.

How the values were obtained:
MTT test = assay type: cell-based; details: human, serum-free RPMI-1640, overnight incubation, mean ± SD of three independent tests, read-out: IC50 of cytotoxic action toward human PBMC
Method: Cytotoxic activity of peptides toward various types of eukaryotic cells was assessed using the standard MTT [3-(4,5-Dimethylthiazol-2-yl)-2,5-diphenyltetrazolium bromide] test ([Mosmann, 1983]). Human peripheral blood mononuclear cells (PBMC) were isolated from the peripheral blood of healthy donors. Whole heparinized blood diluted 3-fold with sterile PBS was carefully layered upon the 5 ml of the sterile Ficoll-400 (Pharmacia, Sweden) with a density of 1.077 in a sterile 50 ml conical tube and then centrifuged at 600 g and 4°C for 40 min. The mononuclear “ring” remaining above the Ficoll was collected using a transfer pipette and placed in another tube. Cells were washed twice with sterile PBS, resuspended in RPMI-1640 culture medium and immediately used for the test. Tumor cell lines were purchased from Biolot (Saint Petersburg, Russia) and cultured at 37°C and 5% CO2 in RPMI-1640 medium (Biolot, Saint Petersburg, Russia) supplemented with 10% fetal bovine serum, glutamine, and penicillin-streptomycin combination. For the experiments, cells were washed from the medium they were growing in and resuspended in serum- and antibiotic-free RPMI-1640. Cells were added at not less than 2 × 10^4 per well in sterile flat bottom 96-well microplates containing serial dilutions of tested peptides in RPMI-1640. For the positive control (100% viable cells), RPMI-1640 medium was used instead of the peptide solution, whereas for the negative control (0% viable cells) medium replaced both peptide and cells. Test plates were incubated at 37°C and 5% CO2 overnight, after which MTT metabolic marker in PBS (5 mg/ml) was introduced into each well. After an additional 4 h incubation, the reaction was stopped by adding isopropanol supplemented with 0.04 M HCl, in which the formazan crystals (formed as a result of MTT reduction in presence of metabolically active cells) were dissolved, and OD at 540 nm was measured. Background absorbance at 690 nm was subtracted from the results to countervail any unspecific OD fluctuations. The % of surviving cells was found as:
(2) Survival(%)=(ODsample−OD0% viable)/(OD100% viable−OD0% viable)×100%,
(§1) where ODsample, OD0% viable, and OD100% viable are respectively values of the OD at 540 nm minus the OD at 690 nm for the test sample and negative or positive controls. IC50 toxicity values were determined by nonlinear regression analysis of the dose response curves using Sigma Plot 11 (Systat Software Inc., USA). The experiments were repeated three times, with 3 parallels of samples and 4–6 parallels of controls each time.

E. coli ML-35p = test: Broth microdilution assay (MIC); assay type: cell-based, Escherichia coli; details: 50% MH broth/50% 10 mM Na-P buffer pH 7.4 with 0.1% BSA, 1×10^6 CFU/ml, 20 h, median of 3–6 independent experiments in triplicate
Method: The minimal inhibitory concentrations (MIC) of peptides were determined using microdilution assay in Müller–Hinton (MH) broth in general accordance with the guidelines of the European Committee for Antimicrobial Susceptibility Testing. Test plates were additionally pretreated with 0.1% bovine serum albumin (BSA) in distilled H2O (incubated for 1 h at 37°C) to reduce possible non-specific binding of peptides to the plastic surface of the wells, as proposed for AMP activity measuring ([Tossi et al., 1997]; [Wiegand et al., 2008]). Two-fold serial dilutions of peptides starting with 2 × stock concentration were prepared in sterile 10 mM sodium phosphate (Na-P) buffer, pH 7.4, with 0.1% BSA. Thus, final solutions contained 50% of Na-P diluted peptide and 50% of MH broth with bacteria. Bacteria for testing were grown overnight, then transferred into a fresh portion of 2.1% MH medium and additionally incubated for 2–3 h to obtain bacterial culture in its mid-logarithmic growth phase, which was diluted down to the final concentration of 1 × 10^6 CFU/ml. Concentration of bacteria in growth medium was calculated based on its absorbance at 620 nm.
After 20 h of incubation of AMPs with bacteria MICs were determined as lowest concentrations of AMPs completely preventing the visible growth of bacteria. Tests were performed in 60-well Terasaki microplates (10 µl end volume, V-shaped bottom; Sarstedt, Germany); dilutions in each test were made in triplicate. Final MIC values were calculated as medians based on the results of 3–5 independent experiments.

P. aeruginosa MDR 522/17 = assay type: cell-based, Pseudomonas aeruginosa; details: MDR 522/17, 24 h
Method: (§2) Quantification of the biofilms forming in the presence of various concentrations of tested AMPs was performed using the crystal violet assay according to general guidelines ([Merritt et al., 2006]). Tests were performed in polystyrene 96-well plates with U-shaped bottom. Peptides were serially diluted in a bacterial growth medium (MH for A. baumannii or TSB for P. aeruguinosa) in a volume of 50 μl per well. Overnight cultures of tested bacteria in a stationary phase of growth were 50 times diluted and introduced into the experimental wells at the same volume of 50 μl. Samples were incubated for 24 h at 37°C. The content of the wells was then shacked out, the plates were gently washed from unattached planktonic bacteria in still water (poured into a large enough vessel); bacterial cells and matrix components adhered to the walls of the wells were stained with a 0.1% aqueous solution of crystal violet dye: 125 μl of dye solution was put into each well and incubated at room temperature for 10 min. After staining dye solution was removed, the plates were washed with clean water and allowed to air-dry. Finally, the bound dye was redissolved by adding 200 μl of 30% acetic acid into each well, incubating it for 15 min at room temperature, and then thoroughly mixing the content of the wells by pipetting. One hundred and twenty five microliters of crystal violet extract from each well were transferred into a flat-bottomed microtiter plate, and the optical density was measured at a wavelength of 560–595 nm (depending on the maximum of absorption in a particular experiment). Experimental samples were made in quadruplicates, and there were 8–9 repeats of control samples without peptides in each test. Presented results are medians calculated based on 3 independent experiments.

A. baumannii 7226/16 = assay type: cell-based, Acinetobacter baumannii; details: 7226/16, 24 h
Method: as §2, with “After staining dye solution was removed, the plates were washed with clean water and allowed to air-dry. Finally, the bound dye was redissolved by adding 200 μl of 30% acetic acid into each well, incubating it for 15 min at room temperature, and then thoroughly mixing the content of the wells by pipetting.” left out, “Experimental samples were made in quadruplicates, and there were 8–9 repeats of control samples without peptides in each test.” left out

human erythrocytes = details: cited from earlier work
Excerpt: The majority of AMPs are membranolytic, and even though eukaryotic cell membranes are less anionic than those of bacterial cells, have a lower membrane potential and are protected by the presence of cholesterol ([Matsuzaki, 2009]), they are considered to be a secondary target, affecting the selectivity of AMPs. […] The hemolysis assay is widely utilized for the express analysis of the toxic properties of AMPs, relating to their membranolytic activity. It was previously shown that na ...

U937 = test: MTT test; assay type: cell-based, human; details: serum-free RPMI-1640, overnight incubation, mean ± SD of three independent tests, read-out: IC50 of cytotoxic action toward U937
Method: Cytotoxic activity of peptides toward various types of eukaryotic cells was assessed using the standard MTT [3-(4,5-Dimethylthiazol-2-yl)-2,5-diphenyltetrazolium bromide] test ([Mosmann, 1983]). Human peripheral blood mononuclear cells (PBMC) were isolated from the peripheral blood of healthy donors. Whole heparinized blood diluted 3-fold with sterile PBS was carefully layered upon the 5 ml of the sterile Ficoll-400 (Pharmacia, Sweden) with a density of 1.077 in a sterile 50 ml conical tube and then centrifuged at 600 g and 4°C for 40 min. The mononuclear “ring” remaining above the Ficoll was collected using a transfer pipette and placed in another tube. Cells were washed twice with sterile PBS, resuspended in RPMI-1640 culture medium and immediately used for the test. Tumor cell lines were purchased from Biolot (Saint Petersburg, Russia) and cultured at 37°C and 5% CO2 in RPMI-1640 medium (Biolot, Saint Petersburg, Russia) supplemented with 10% fetal bovine serum, glutamine, and penicillin-streptomycin combination. For the experiments, cells were washed from the medium they were growing in and resuspended in serum- and antibiotic-free RPMI-1640. Cells were added at not less than 2 × 10^4 per well in sterile flat bottom 96-well microplates containing serial dilutions of tested peptides in RPMI-1640. […] After an additional 4 h incubation, the reaction was stopped by adding isopropanol supplemented with 0.04 M HCl, in which the formazan crystals (formed as a result of MTT reduction in presence of metabolically active cells) were dissolved, and OD at 540 nm was measured. Background absorbance at 690 nm was subtracted from the results to countervail any unspecific OD fluctuations. […]
as §1, with “The experiments were repeated three times, with 3 parallels of samples and 4–6 parallels of controls each time.” left out

Substance	IC50 (MTT test)	MIC (E. coli ML-35p)	Biofilm inhibition (P. aeruginosa MDR 522/17)	Biofilm inhibition (A. baumannii 7226/16)	Hemolytic activity (human erythrocytes)	IC50 (U937)	Biofilm inhibition (A. baumannii 7226/16; 2)
RFRLPFRRPPIRIHPPPFYPPFRRFL [ChBac3.4-COOH]	36.2 ± 6.9 µM	2 µM					
RFRLPFRRPPIRIHPPPFYPPFRRFL-NH2 [ChBac3.4-NH2]	18.6 ± 0.8 µM	2 µM	63 ± 9%	56 ± 12%	not hemolytic		
RFRLPFRRPPIRIPPPFYPPFRRFL-NH2 [ChBac3.4(Н-)]	34.7 ± 7.3 µM	4 µM					
RFRLPFRRPWPIRIHPPPFYPWPFRRFL [ChBac3.4-2-COOH]	20.2 ± 4.5 µM	4 µM					
RFRRFRLPFRRIHPPPFVRIHPPPFYRRFL-NH2 [RFR-ChBac3.4-1-NH2]	18.3 ± 4.1 µM	4 µM	62 ± 1.5%				
RFRRFRLPFRRPPIRIH-NH2 [RFR-ChBac3.4 (1-14)-NH2]	> 64 µM	1 µM	79 ± 5%			> 64 µM	53 ± 3%
RIHPPPFYPPFRRFL-NH2 [ChBac3.4 (12-26)]	43.3 ± 7.7 µM	64 µM					
